Legend:
Primary DRG cells [1] = test: Neurite outgrowth assay (group B), oxaliplatin-induced neurotoxicity; type: cell-based, C57BL/6 J mice; details: for Neurite outgrowth (%): % of untreated control; for Neurite outgrowth (%) A-B: difference between compound 1 µM + oxaliplatin 100 µM and oxaliplatin 100 µM alone; for neuroprotection against oxaliplatin-induced neurotoxicity: 1 µM compound
Protocol: (§1) Cell culture. For primary culture, dorsal root ganglia (“DRG”) were removed from 7-weeks-old C57BL/6 J mice and digested with 0.1% collagenase (Sigma-Aldrich, St. Louis, MO) for 1 hour, followed by 0.25% trypsin treatment for 25 minutes. The dissociated neuron cultures were plated at a density of 2.5×10^4 cells per well in a 96 well optics plates (CLS3614; Sigma-Aldrich) precoated with 1 mg/mL poly-D-lysine (A-003-M; Sigma-Aldrich) for 3 hours. Primary DRG cells were grown in DMEM-F12 (11320033; Gibco®, ThermoFisher Scientific, Waltham, MA) supplemented with 10% fetal bovine serum (FBS, 26140079; Gibco®, ThermoFisher). These cells were maintained at 37° C. in an environment containing 5% CO2.
(§2) Neurite outgrowth assay (group A). Primary DRG cells were incubated with one of the Example 2 compounds at 1 µM for 24 hours, and then treated with 0.05 µM paclitaxel for another 24 hours. After the paclitaxel treatment, the primary DRG cells were washed by PBS and then fixed with 4% paraformaldehyde (PFA, P6148; Sigma-Aldrich) for 15 minutes. The DRG cells thus fixed were permeabilized by 0.05% Triton X-100 in PBS for 20 minutes and blocked with 3% bovine serum albumin (BSA; Sigma-Aldrich, USA) at room temperature for 1 hour. Subsequently, DRG cells were stained with rabbit anti-β III tubulin (1:600; Cell Signaling, USA) and mouse anti-NeuN monoclonal antibody (1:400; Millipore, USA) overnight at 4° C. The samples were then washed by PBS and reacted with secondary antibodies (Alexa-488 and Alexa-594 1:600; Invitrogen, CA) at room temperature for 1 hour. For image acquisition and analysis of DRG neurite outgrowth, images of stained cells were automatically acquired using 10X objective by Image Xpress Micro wide field fluorescent microscope (Molecular Devices, USA). A control was obtained following the same procedure except that the DRG cells were not treated with a compound or paclitaxel. Neurite outgrowth was measured as a percentage of outgrowth as compared to the control.
Neurite outgrowth assay (group B). Primary DRG cells were incubated with compounds 17, 47, 97, 98, 101, 104 at 1 µM for 24 hours, and then treated with 100 µM oxaliplatin for another 48 hours. The treatment was obtained following the same procedure as group A except that the DRG cells were treated with a oxaliplatin. Neurite outgrowth was measured as a percentage of outgrowth as compared to the control.

Primary DRG cells [2] = test: Neurite outgrowth assay (group A), paclitaxel-induced neurotoxicity; type: cell-based, C57BL/6 J mice; details: for neuroprotection against paclitaxel-induced neurotoxicity: 1 µM compound, 0.05 µM paclitaxel; for activity at 1 µM: Mus musculus, DRG cells, 1 µM compound 24 h then 0.05 µM paclitaxel 24 h, % of untreated control, read-out: Neurite outgrowth (%); for Neurite outgrowth (%) A-B (extent of protection): difference between compound 1 µM + paclitaxel 0.05 µM and paclitaxel 0.05 µM alone
Protocol: Compounds of this invention were evaluated using the neurite outgrowth assay as described in Chen et al., Scientific Reports, 7, 45366, DOI: 10.1038/srep45366 (2017).
as §1, §2
The difference between A and B indicates an extent of protection provided by the compound.

[3] = test system: paclitaxel-induced neuropathy; details: 5 mg/kg i.p. one hour before paclitaxel 4.5 mg/kg i.p., days 0, 2, 4, 6
Protocol: Compound 47 was used in an in vivo mouse behavioral study for treating paclitaxel-induced neuropathy following a procedure described in Chen et al., Scientific Reports, 7, 45366, DOI: 10.1038/srep45366 (2017).
After housing adaptions, 7-weeks-old C57BL/6J female mice (weight range: 18-20 g) were treated as follows. Paclitaxel (4.5 mg/kg, Bristol-Myers Squibb, New York, New York), vehicle (saline), or Compound 47 (5, 10 or 20 mg/kg) was injected intraperitoneally on four alternative days (days 0, 2, 4, and 6). Two behavior tests were performed: (1) mechanical hyperalgesia was evaluated using a von Frey filament (Part #2390, IITC Inc., CA) and (2) thermal sensitivity was studied using a tail immersion assay (water temperature: 48-49° C.). See Chen et al., Mol. Cancer. Ther. 14, 2206-14 (2015). The baseline measurement of each behavior test was established prior to treatments. Five sessions were measured weekly.
The neuroprotective effects of Compound 47 in a mouse model was measured following a protocol with predetermined drug administration and behavioral tests. The basal levels of each behavioral assay were obtained prior to the treatment. […]
A von Frey filament test was performed to detect allodynia. […] Thermal sensation was assessed using a tail immersion test by checking tail withdrawal latency. […]

[4] = DRG cells, 1 µM compound 24 h then 100 µM oxaliplatin 48 h

| SMILES | Neurite outgrowth (%) (Primary DRG cells [1]; [4]) | Neurite outgrowth (%) A-B (Primary DRG cells [1]) | neuroprotection against paclitaxel-induced neurotoxicity (Primary DRG cells [2]) | activity at 1 µM (Primary DRG cells [2]) | Neurite outgrowth (%) A-B (extent of protection) (Primary DRG cells [2]) | neurotoxicity to DRG neurite outgrowth (Primary DRG cells [1]; 100 µM oxaliplatin 48 h) | inhibition of DRG neurite outgrowth (Primary DRG cells [1]; 100 µM oxaliplatin, across experiments of Table 2) | Neurite outgrowth (%) (Primary DRG cells [1]; DRG cells treated with 100 µM oxaliplatin only, comparator of the compound in the same table row) | neuroprotection against oxaliplatin-induced neurotoxicity (Primary DRG cells [1]; 100 µM oxaliplatin) | improvement of neurite outgrowth (Primary DRG cells [1]; 1 µM compound vs 100 µM oxaliplatin treated cells) | pain threshold (von Frey) [3] | improvement of neurite outgrowth (Primary DRG cells [2]; 1 µM compound vs 0.05 µM paclitaxel treated cells) |
| --- | --- | --- | --- | --- | --- | --- | --- | --- | --- | --- | --- | --- |
| CC(C)NCCCn1cc(CNc2nc(NC3CCN(Cc4ccccc4)CC3)cc(N3CCOCC3)n2)nn1 [Compound 17] | 26% | -3% | neuroprotection was provided | 50% | 3% | – | – | – | – | – | – | – |
| CCn1nnc(CNc2nc(N3CCOCC3)cc(N3CCOCC3)n2)n1 [Compound 98] | 26% | -3% | neuroprotection was provided | 45% | 5% | – | – | – | – | – | – | – |
| O=C1[O][Pt]2([NH][C@@H]3CCCC[C@H]3[NH]2)[O]C1=O [oxaliplatin, reference compound] | – | – | – | – | – | inhibiting neurite outgrowth | 60%-71 | 29% | – | – | – | – |
| CCn1nnc(CNc2nc(NC3CCN(CCC(=O)O)CC3)cc(N3CCOCC3)n2)n1 [Compound 101] | 31% | 2% | neuroprotection was provided | 53% | 6% | – | – | – | neuroprotection was provided | – | – | – |
| OCCCc1cc(CNc2nc(NC3CCNCC3)cc(N3CCOCC3)n2)no1 [Compound 104] | 34% | 5% | neuroprotection was provided | 45% | 5% | – | – | – | neuroprotection was provided | – | – | – |
| O=P(O)(O)CCN1CCC(Nc2cc(N3CCOCC3)nc(NCc3cn(CCCO)nn3)n2)CC1 [Compound 47] | 47% | 7% | neuroprotection was provided | 65% | 18% | – | – | – | neuroprotection was provided | more than 7% | provided protection | more than 18% |
| CCn1nnnc1CNc1nc(N2CCOCC2)cc(N2CCOCC2)n1 [Compound 97] | 31% | 2% | neuroprotection was provided | 45% | 5% | – | – | – | neuroprotection was provided | – | – | – |

Source: patent publication US20230085362A1, “PYRIMIDINE COMPOUNDS AND USE THEREOF” (National Health Research Institutes, priority 2021, published 2023)
